Test results published in article PMC9221509, “Discovery of a Novel Antimicrobial Peptide, Temporin-PKE, from the Skin Secretion of Pelophylax kl. esculentus, and Evaluation of Its Structure-Activity Relationships” (Biomolecules, 2022).
In brackets after ≈: the same amount, converted by molar mass. Like-named read-outs stand apart in the source and are kept apart here. Non-standard residues stand in square brackets, D forms with d. Residues, ends and D or L forms follow the SMILES beside them. No end group written: not given here.

Key:
[1] = test system: horse red blood cells; format: cell-based
Procedure: As a previous study described in detail, the haemolysis activity assays of peptides were conducted on defibrinated horse blood (TCS Biosciences Ltd., Buckingham, UK) with an erythrocyte suspension concentration of 2% (v/v). The 120 μL of peptide solution in a gradient concentration ranging from 1µM to 512 µM was mixed with the same volume of 2% horse red blood cell suspension, and the complex was incubated at 37 °C for 2 h. PBS and 0.1% Triton X-100 were chosen as the negative and positive control, respectively. After centrifugation at 900× g for 5 min, the absorbance of the supernatant was analysed using a microplate reader (EL808, Biolise BioTek, Winooski, VT, USA) set to a wavelength of 570 nm. The equation to calculate the haemolysis of the peptides is shown below: Haemolysis (%)=A−An/Ap−An×100% where A represents the absorbance of each treatment group, An represents the average absorbance of the negative control group, and Ap represents the average absorbance of the positive control group.

[2] = test system: E. coli (ATCC CRM 8739); assay: microbe, parasite or virus in culture; format: cell-based, Escherichia coli; conditions: for MBC: ATCC CRM 8739, 18 h; for MIC: ATCC CRM 8739, 24 h
Procedure: (§1) The antimicrobial activities of peptides were evaluated against the Gram-positive bacteria, S. aureus (ATCC 6538), methicillin-resistant Staphylococcus aureus (MRSA) (NCTC 12493), Enterococcus faecalis (E. faecalis) (NCTC 12697); the Gram-negative bacteria, E. coli (ATCC CRM 8739), Klebsiella pneumoniae (K. pneumoniae) (ATCC 43816), Pseudomonas aeruginosa (P. aeruginosa) (ATCC CRM 9027); and the yeast, Candida albicans (C. albicans) (ATCC CRM 10231). Clinical isolates of MRSA (B042 V2E1 A), E. coli (ATCC BAA-2340), K. pneumoniae (ATCC BAA-1705), and P. aeruginosa (B004 V2S2 B) were also used to determine their antimicrobial activities. The suspension of microorganisms in the logarithmic growth phase with a specific final density (Gram-negative and Gram-positive bacteria: 5 × 10^5 CFU/mL; yeast: 1 × 10^6 CFU/mL) was incubated with different peptide concentrations from 1 µM to 512 µM at 37 °C for 24 h. PBS was used as the negative control, and norfloxacin and amphotericin B were selected as the positive control for bacteria and yeast, respectively. Since the Norfloxacin had weak activities against P. aeruginosa (B004 V2S2 B) and K. pneumoniae (ATCC BAA 1705), gentamicin was used as the positive control for these two bacterial strains. The absorbance of each well was obtained using a microplate reader (EL808, Biolise BioTek, Winooski, VT, USA) set at 550 nm wavelength. The MIC value was the lowest concentration of a peptide that inhibits visible bacterial growth. Once the MIC values were determined, an aliquot from the bacterial culture exposed to the peptide at or above its MIC value was inoculated on a Mueller Hinton agar (MHA) and was incubated at 37 for 18 h. The MBC value was the lowest concentration of a peptide that kills 99.9% of bacteria.

[3] = test system: K. pneumoniae (ATCC 43816); format: cell-based, Klebsiella pneumoniae; conditions: ATCC 43816, 24 h
Procedure: as §1
According to the procedures in a previous article, the analysis of the sensitivity of the peptides was determined by measuring MIC values in the presence of different types of salts and 10% fetal bovine serum. MRSA (NCTC 12493) and K. pneumoniae (ATCC 43816) were selected as the subjects of these assays. Various salts at different concentrations, including 150 mM NaCl, 4.5 mM KCl, 6 μM NH4Cl, 1 mM MgCl2, […], […], and 10% serum (Gibco, Auckland, New Zealand), were added to the MHB medium for the examination of the MIC values which were determined as described in Section 2.7.

[4] = test system: E. coli (ATCC CRM 8739) biofilm; format: cell-based, Escherichia coli; conditions: ATCC CRM 8739, 24 h
Procedure: (§2) The anti-biofilm activities of the peptides against S. aureus (ATCC 6538), MRSA (NCTC 12493), E. faecalis (NCTC 12697), E. coli (ATCC CRM 8739), K. pneumoniae (ATCC 43816), and P. aeruginosa (ATCC CRM 9027), were evaluated. For the MBIC assay, 99 µL of bacterial suspension (5 × 10^5 CFU/mL) was mixed with 1 µL of serial dilutions (from 100 µM to 51,200 µM) of temporin-PKE and its analogues in a 96-well plate, and the plate was incubated in a moist shaking incubator at a speed of 200 rpm at 37 °C for 24 h. For the MBEC assay, 100 µL of bacterial suspension (5 × 10^5 CFU/mL) in each well was seeded in a new 96-well plate, and the plate was put into the same shaking incubator for 24 h incubation to allow biofilm formation on the well. After biofilm formation, the biofilm in the plate was washed with PBS twice. The PBS was aspirated between washes to remove planktonic bacterial cells. The washed biofilm in each well was treated with 100 µL of serial dilutions (from 1 µM to 512 µM) of the test peptides. Then, the plate was incubated in the same shaking incubator for another 24 h. After being washed by PBS twice and fixed with methanol, the biofilm in each well was incubated with 100 µL of 0.1% crystal violet for 30 min, and the stained biofilm was dissolved in 100 µL of glacial acidic acid after drying. The solutions were transferred to a new microplate, and the absorbance of each well was measured using a microplate reader (EL808, Biolise BioTek, Winooski, VT, USA) set to 595 nm wavelength. The MBIC was the minimum concentration of the peptide showing no biofilm formation. The MBEC is the lowest concentration of the peptide capable of eradicating the mature biofilms, which had no biofilm in the well.

[5] = test system: S. aureus (ATCC 6538); assay: microbe, parasite or virus in culture; format: cell-based, Staphylococcus aureus; conditions: for MBC: ATCC 6538, 18 h; for MIC: ATCC 6538, 24 h
Procedure: as §1

[6] = test system: C. albicans (ATCC CRM 10231); assay: organism not typed; format: cell-based, Candida albicans; conditions: for MBC: ATCC CRM 10231, 18 h, read-out: MBC; for MIC: ATCC CRM 10231, 24 h, read-out: MIC
Procedure: as §1

[7] = test system: S. aureus (ATCC 6538) biofilm; format: cell-based, Staphylococcus aureus; conditions: ATCC 6538, 24 h
Procedure: as §2

[8] = test system: E. faecalis (NCTC 12697); assay: microbe, parasite or virus in culture; format: cell-based, Enterococcus faecalis; conditions: for MBC: NCTC 12697, 18 h; for MIC: NCTC 12697, 24 h
Procedure: as §1

| Molecule | HC50 ([1]; red cells of horse, 2 h) | MBC [2] | MIC [2] | MIC against K. pneumoniae in the presence of 4 µM FeCl3 [3] | MIC against K. pneumoniae in the presence of 6 µM NH4Cl [3] | MIC against K. pneumoniae in the presence of 8 µM ZnCl2 [3] | MIC against K. pneumoniae in the presence of 1 mM MgCl2 [3] | MIC against K. pneumoniae in the presence of 2 mM CaCl2 [3] | MIC against K. pneumoniae in the presence of 4.5 mM KCl [3] | MIC against K. pneumoniae in the presence of 150 mM NaCl [3] | MIC against K. pneumoniae in the presence of 10% FBS [3] | MIC against K. pneumoniae, Negative [3] | MBIC [4] | MBC [5] | MIC [5] | MBC [6] | MIC [6] | MBIC [7] | MBC [8] | MIC [8] | other results |
| --- | --- | --- | --- | --- | --- | --- | --- | --- | --- | --- | --- | --- | --- | --- | --- | --- | --- | --- | --- | --- | --- |
| FLPLIIGKLSSLLPKIF-NH2 [Temporin-PKE-2K] | 19.87 µM | 4 µM | 4 µM | 16 µM | 16 µM | 16 µM | 32 µM | 32 µM | 16 µM | 128 µM | 64 µM | 16 µM | 64 µM | 2 µM | 2 µM | >512 µM | >512 µM | 2 µM | 2 µM | 2 µM | HC50 relative to that of temporin-PKE [1]: 3 fold |
| FLPLIIGALSSKLPKIF-NH2 [Temporin-PKE-K12] | 122.7 µM | 8 µM | 8 µM | 32 µM | 32 µM | 64 µM | 128 µM | 256 µM | 32 µM | 128 µM | 128 µM | 32 µM | 64 µM | 4 µM | 4 µM | >512 µM | >512 µM | 4 µM | 8 µM | 8 µM | HC50 [1]: 122.7 µM |
| CC[C@@H](C)[C@@H](NC(=O)[C@H](CCCCN)NC(=O)[C@@H]1CCCN1C(=O)[C@H](CC(C)C)NC(=O)[C@H](CC(C)C)NC(=O)[C@H](CO)NC(=O)[C@H](CO)NC(=O)[C@H](CC(C)C)NC(=O)[C@H](C)NC(=O)CNC(=O)[C@H](NC(=O)[C@H](NC(=O)[C@H](CC(C)C)NC(=O)[C@@H]1CCCN1C(=O)[C@H](CC(C)C)NC(=O)[C@@H](N)Cc1ccccc1)[C@H](C)CC)[C@H](C)CC)C(=O)N[C@@H](Cc1ccccc1)C(N)=O [Temporin-PKE-3i] (H-FLPL[dI][dI]GALSSLLPK[dI]F-NH2) | 64.0 µM | – | – | >512 µM | >512 µM | >512 µM | >512 µM | >512 µM | >512 µM | >512 µM | >512 µM | >512 µM | >512 µM | 32 µM (≈ 58.9 µg/mL) | 32 µM (≈ 58.9 µg/mL) | 256 µM (≈ 471 µg/mL) | – | 64 µM | 128 µM (≈ 236 µg/mL) | 128 µM (≈ 236 µg/mL) | MBC ([2]; read-out: MBC): >512 µM; MIC ([2]; read-out: MIC): >512 µM |
